# Measurements reported in patent US20100003209A1, “Odor Blocking Water-Absorbent Compositions” (BASF SE, priority 2006, published 2010).
# Where two headings read alike, the source gives them in different places.
# How the values were obtained:
# [1] = Centrifuge Retention Capacity (CRC), EDANA test method No. 441.2-02; type: physicochemical
# [2] = target: urease (from jack beans) (Canavalia ensiformis, UniProt P07374); conditions: 23° C.
# Description: The measurements should be carried out, unless otherwise stated, at an ambient temperature of 23±2° C. and a relative humidity of 50±10%. The water-absorbing polymers are thoroughly commixed prior to the measurement.
# To determine the odor-preventing effect, 2 g of each of the compositions produced above were placed in a 100 ml Erlenmeyer flask and admixed with a freshly prepared solution of 30 mg of urease (from jack beans; lyophilized 5 U/mg for urea assay in serum; Merck KGaA, Germany) and 50 ml of 0.9% sodium chloride solution, the sodium chloride solution containing 8.56 g/l of urea, and sealed with a stopper having an internal diffusion tubelet (Dräger® Röhrchen; ammonia 20/a-D, 20 to 1500 ppm*h). The measurement was discontinued after 6 hours. The test was carried out at 23° C.
# [3] = 0.0500% by weight in composition with polymer from Example 1 (55 mol % neutralized)
# [4] = 0.2000% by weight in composition with polymer from Example 1 (55 mol % neutralized)
# Sequence of urease (from jack beans) (P07374 whole entry, looked up): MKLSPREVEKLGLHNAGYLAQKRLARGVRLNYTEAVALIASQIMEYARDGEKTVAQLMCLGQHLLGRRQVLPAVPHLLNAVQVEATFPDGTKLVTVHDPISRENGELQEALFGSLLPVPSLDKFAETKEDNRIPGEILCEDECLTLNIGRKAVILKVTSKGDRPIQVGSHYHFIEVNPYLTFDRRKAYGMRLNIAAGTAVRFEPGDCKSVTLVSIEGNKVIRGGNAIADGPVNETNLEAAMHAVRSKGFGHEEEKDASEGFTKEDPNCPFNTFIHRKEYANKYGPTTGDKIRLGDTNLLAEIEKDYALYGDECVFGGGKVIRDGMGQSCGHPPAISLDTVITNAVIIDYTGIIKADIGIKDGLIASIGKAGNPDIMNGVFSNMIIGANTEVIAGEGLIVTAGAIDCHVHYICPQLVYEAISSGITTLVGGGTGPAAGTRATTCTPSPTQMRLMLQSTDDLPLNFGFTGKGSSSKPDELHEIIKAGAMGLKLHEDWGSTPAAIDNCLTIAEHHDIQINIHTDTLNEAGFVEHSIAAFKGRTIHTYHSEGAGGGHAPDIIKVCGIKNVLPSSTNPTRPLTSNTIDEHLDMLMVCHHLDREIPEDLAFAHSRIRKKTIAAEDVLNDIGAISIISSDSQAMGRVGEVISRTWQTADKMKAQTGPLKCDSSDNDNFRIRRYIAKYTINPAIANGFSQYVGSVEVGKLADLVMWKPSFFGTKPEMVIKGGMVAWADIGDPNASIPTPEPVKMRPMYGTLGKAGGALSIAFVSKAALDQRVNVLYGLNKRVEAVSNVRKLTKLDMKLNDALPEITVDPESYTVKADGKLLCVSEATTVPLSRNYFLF
structure (smiles),measurement,setting,value
[F-].[Na+] [sodium fluoride],CRC,[1]; [3],29.1 g/g
same,CRC,[1]; 0.0900% by weight in composition with polymer from Example 1 (55 mol % neutralized),28.5 g/g
same,CRC,[1]; [4],24.1 g/g
Oc1ccc(O)cc1 [hydroquinone],NH3 after 6 hours,"[2]; 0.0025% by weight in composition, degree of neutralization 55 mol %",91 ppm
same,NH3 after 6 hours,"[2]; 0.0025% by weight in composition, degree of neutralization 60 mol %",182 ppm
same,NH3 after 6 hours,"[2]; 0.0025% by weight in composition, degree of neutralization 72 mol %",800 ppm
same,NH3 after 6 hours,"[2]; 0.0050% by weight in composition, degree of neutralization 55 mol %",58 ppm
same,NH3 after 6 hours,"[2]; 0.0050% by weight in composition, degree of neutralization 60 mol %",78 ppm
same,NH3 after 6 hours,"[2]; 0.0050% by weight in composition, degree of neutralization 72 mol %",381 ppm
same,NH3 after 6 hours,"[2]; 0.0100% by weight in composition, degree of neutralization 55 mol %",29 ppm
same,NH3 after 6 hours,"[2]; 0.0100% by weight in composition, degree of neutralization 60 mol %",45 ppm
same,NH3 after 6 hours,"[2]; 0.0100% by weight in composition, degree of neutralization 72 mol %",214 ppm
same,NH3 after 6 hours,"[2]; 0.0200% by weight in composition, degree of neutralization 55 mol %",0 ppm
same,NH3 after 6 hours,"[2]; 0.0200% by weight in composition, degree of neutralization 60 mol %",10 ppm
same,NH3 after 6 hours,"[2]; 0.0200% by weight in composition, degree of neutralization 72 mol %",63 ppm
same,NH3 after 6 hours,"[2]; 0.0500% by weight in composition, degree of neutralization 55 mol %",0 ppm
same,NH3 after 6 hours,"[2]; 0.0500% by weight in composition, degree of neutralization 60 mol %",0 ppm
same,NH3 after 6 hours,"[2]; 0.0500% by weight in composition, degree of neutralization 72 mol %",15 ppm
same,NH3 after 6 hours,"[2]; 0.2000% by weight in composition, degree of neutralization 55 mol %",0 ppm
same,NH3 after 6 hours,"[2]; 0.2000% by weight in composition, degree of neutralization 60 mol %",0 ppm
same,NH3 after 6 hours,"[2]; 0.2000% by weight in composition, degree of neutralization 72 mol %",0 ppm
same,NH3 after 6 hours,"[2]; 1.0000% by weight in composition, degree of neutralization 55 mol %",0 ppm
same,NH3 after 6 hours,"[2]; 1.0000% by weight in composition, degree of neutralization 60 mol %",0 ppm
same,NH3 after 6 hours,"[2]; 1.0000% by weight in composition, degree of neutralization 72 mol %",0 ppm
same,CRC,[1]; 0.0050% by weight in composition with polymer from Example 1 (55 mol % neutralized),28.5 g/g
same,CRC,[1]; [3],28.7 g/g
same,CRC,[1]; [4],25.3 g/g
same,CRC,[1]; 1.0000% by weight in composition with polymer from Example 1 (55 mol % neutralized),23.4 g/g
